Reference: the supplement of paper PMC11665569
± gives the standard deviation of the averaged measurements.

Experiments:
Conditions in all cases: treatment time: 5 days
[1] = system: MIAPACA2; assay: relative viability (fraction of vehicle control); higher = more viable / less inhibited
Procedure: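 CCK-8 viability of MIAPACA2 cells with empty vector or constitutively active YAP S127A, treated with KRAS G12C inhibitors for 5 days, normalised to vehicle control.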

[2] = system: H358
Procedure: (§1)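 CCK-8 viability of KRAS G12C-mutant cancer cell lines transfected with control, YAP/TAZ or TEAD1-4 siRNAs and treated with KRAS G12C inhibitors for 5 days; IC50 fitted in Prism after normalising absorbance at 450 nm to vehicle control.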

[3] = system: KYSE410
Procedure: as §1

[4] = system: SW1573
Procedure: as §1

[5] = system: MIAPACA2
Procedure: as §1

[6] = system: H2030
Procedure: as §1

[7] = system: H1373
Procedure: as §1

[8] = system: H1792
Procedure: as §1

[9] = system: H1373; assay: relative viability (fraction of vehicle control); higher = more viable / less inhibited
Procedure: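 CCK-8 viability of H1373 cells with empty vector or constitutively active YAP S127A, treated with KRAS G12C inhibitors for 5 days, normalised to vehicle control.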

C=CC(=O)N1CCN(c2ncnc3c(F)c(-c4c(O)cccc4F)c(Cl)cc23)CC1 [ARS1620]
Conditions | IC50 (cell viability, 5 days) [nM] | relative viability
[1], log10 concentration (uM): -0.30103, ectopic expression: YAP S127A | – | 0.946 ± 0.025
[1], log10 concentration (uM): -0.30103, ectopic expression: empty vector (YAP experiment) | – | 0.996 ± 0.078
[1], log10 concentration (uM): -0.60206, ectopic expression: YAP S127A | – | 0.915 ± 0.079
[1], log10 concentration (uM): -0.60206, ectopic expression: empty vector (YAP experiment) | – | 0.98 ± 0.083
[1], log10 concentration (uM): -1, ectopic expression: YAP S127A | – | 0.969 ± 0.065
[1], log10 concentration (uM): -1, ectopic expression: empty vector (YAP experiment) | – | 1.05 ± 0.043
[1], log10 concentration (uM): -2, ectopic expression: YAP S127A | – | 0.992 ± 0.12
[1], log10 concentration (uM): -2, ectopic expression: empty vector (YAP experiment) | – | 0.994 ± 0.12
[2], siRNA knockdown (Con = control): Con | 400 | –
[2], siRNA knockdown (Con = control): TEAD1234_si1 | 366 | –
[2], siRNA knockdown (Con = control): TEAD1234_si2 | 228 | –
[2], siRNA knockdown (Con = control): YAP_WWTR1_si1 | 183 | –
[2], siRNA knockdown (Con = control): YAP_WWTR1_si2 | 135 | –
[3], siRNA knockdown (Con = control): Con | 4240 | –
[3], siRNA knockdown (Con = control): TEAD1234_si1 | 1050 | –
[3], siRNA knockdown (Con = control): TEAD1234_si2 | 1070 | –
[3], siRNA knockdown (Con = control): YAP_WWTR1_si1 | 1680 | –
[3], siRNA knockdown (Con = control): YAP_WWTR1_si2 | 1190 | –
[4], siRNA knockdown (Con = control): Con | 13200 | –
[4], siRNA knockdown (Con = control): TEAD1234_si1 | 342 | –
[4], siRNA knockdown (Con = control): TEAD1234_si2 | 164 | –
[4], siRNA knockdown (Con = control): YAP_WWTR1_si1 | 100 | –
[4], siRNA knockdown (Con = control): YAP_WWTR1_si2 | 132 | –
[5], siRNA knockdown (Con = control): Con | 10400 | –
[5], siRNA knockdown (Con = control): TEAD1234_si1 | 5670 | –
[5], siRNA knockdown (Con = control): TEAD1234_si2 | 5420 | –
[5], siRNA knockdown (Con = control): YAP_WWTR1_si1 | 4420 | –
[5], siRNA knockdown (Con = control): YAP_WWTR1_si2 | 6970 | –
[6], siRNA knockdown (Con = control): Con | 9870 | –
[6], siRNA knockdown (Con = control): TEAD1234_si1 | 1050 | –
[6], siRNA knockdown (Con = control): TEAD1234_si2 | 237 | –
[7], siRNA knockdown (Con = control): Con | 1950 | –
[7], siRNA knockdown (Con = control): YAP_WWTR1_si1 | 580 | –
[7], siRNA knockdown (Con = control): YAP_WWTR1_si2 | 305 | –
[8], siRNA knockdown (Con = control): Con | 1960 | –
[8], siRNA knockdown (Con = control): YAP_WWTR1_si1 | 590 | –
[8], siRNA knockdown (Con = control): YAP_WWTR1_si2 | 472 | –
[9], log10 concentration (uM): 0, ectopic expression: YAP S127A | – | 0.7325 ± 0.0061
[9], log10 concentration (uM): 0, ectopic expression: empty vector (YAP experiment) | – | 0.658 ± 0.035
[9], log10 concentration (uM): 0.39794, ectopic expression: YAP S127A | – | 0.627 ± 0.046
[9], log10 concentration (uM): 0.39794, ectopic expression: empty vector (YAP experiment) | – | 0.504 ± 0.023
[9], log10 concentration (uM): 0.69897, ectopic expression: YAP S127A | – | 0.564 ± 0.049
[9], log10 concentration (uM): 0.69897, ectopic expression: empty vector (YAP experiment) | – | 0.413 ± 0.07
[9], log10 concentration (uM): 1, ectopic expression: YAP S127A | – | 0.545 ± 0.062
[9], log10 concentration (uM): 1, ectopic expression: empty vector (YAP experiment) | – | 0.329 ± 0.021
[9], log10 concentration (uM): 1.301029996, ectopic expression: YAP S127A | – | 0.413 ± 0.012
[9], log10 concentration (uM): 1.301029996, ectopic expression: empty vector (YAP experiment) | – | 0.26 ± 0.015
[9], log10 concentration (uM): -0.30103, ectopic expression: YAP S127A | – | 0.811 ± 0.049
[9], log10 concentration (uM): -0.30103, ectopic expression: empty vector (YAP experiment) | – | 0.862 ± 0.041
[9], log10 concentration (uM): -0.60206, ectopic expression: YAP S127A | – | 0.866 ± 0.036
[9], log10 concentration (uM): -0.60206, ectopic expression: empty vector (YAP experiment) | – | 0.847 ± 0.13
[9], log10 concentration (uM): -1, ectopic expression: YAP S127A | – | 0.933 ± 0.051
[9], log10 concentration (uM): -1, ectopic expression: empty vector (YAP experiment) | – | 0.917 ± 0.077
[9], log10 concentration (uM): -2, ectopic expression: YAP S127A | – | 1 ± 0.047
[9], log10 concentration (uM): -2, ectopic expression: empty vector (YAP experiment) | – | 0.989 ± 0.054
